# From a melting point compilation (Tetko et al.; mined from patent text by program, amines drawn as free bases though some values may be those of a salt)
row,Compound,melting point
1,CN(Cc1ccccc1)C(=N)N[N+](=O)[O-],103 to 107 °C
2,COc1ccc2c(c1)S(=O)c1nccnc1N2 (stereo not given),240 to 241 °C
3,O=[N+]([O-])c1ccc2c(c1)C(c1ccccc1F)=[N+]([O-])C(CCl)N2 (stereo not given),220 to 224 °C
4,CC(=NO)C(C)(C)NCC(Cn1ccnc1[N+](=O)[O-])ONC(C)(C)C(C)=NO (stereo not given),170 to 171 °C
5,O=C(c1ccc(F)cc1)N1CCOC(c2nc(-c3ccc(F)cc3)no2)C1 (stereo not given),116 to 117 °C
6,O=C(NCCC1CCCCCCCCCCC1)C1=C(O)COC1=O,135 to 137 °C
7,COc1ccc(CC2CCN(CCS(=O)c3ccc4[nH]c(=O)oc4c3)CC2)cc1 (stereo not given),169 to 170 °C
8,O=C(OC1CCCC1)c1cc([N+](=O)[O-])c(F)cc1Cl,44 to 45 °C
9,CCOC(=O)c1cc2cc(OC(F)(F)F)cc(N)c2[nH]1,190 to 191 °C
10,COc1ccc(C(O)c2nn(C)c3c2CCc2c(C(N)=O)sc(Oc4ccc5c(c4)OCO5)c2-3)cc1 (stereo not given),187 to 188 °C
11,O=C(O)CN1C(=O)C2C3C=CC(CC3)C2C1=O (stereo not given),142 °C
12,Cc1cccc(SCc2c(C(C)C)nc(C(C)C)c(CO)c2-c2ccc(F)cc2)c1,92 to 93 °C
13,N#CC=Cc1ccc(C=Cc2ccc(Br)cc2)cc1,258 °C
14,COC(=O)C(C)=CNC(=O)Nc1cc(C(=O)OC(C)C)c(Cl)cc1F,189 to 190 °C
15,Cc1cc(-c2ccc(S(C)(=O)=O)cc2)n(-c2ccc(F)cc2)c1Cl,151 to 154 °C
16,COC(=O)Nc1ccc(O)c(Cl)c1,96 to 98 °C
17,CCCn1cc(Cc2ccc(C(=O)OC)cc2OC)c2cc(CCCC(=O)O)ccc21,106 to 109 °C
18,CCCCc1nn(-c2ccccc2C(F)(F)F)c(=O)n1Cc1ccc(-c2ccccc2S(=O)(=O)Nc2ccc([N+](=O)[O-])cc2)cc1,186 to 187 °C
19,O=C(CCCCN1CCC(Cc2ccccc2)CC1)c1ccc2c(c1)C(=O)c1cc(C(=O)CCCCN3CCC(Cc4ccccc4)CC3)ccc1-2,124 to 126 °C
20,CCOC(=O)C(=O)Nc1c([N+](=O)[O-])sc2c(Cl)cc(Cl)cc12,177 to 180 °C
21,COc1ccc2c(CC3CCN(CCc4c(C)sc5c4CCN(C(C)=O)C5)CC3)noc2c1OC,197 to 200 °C
22,CCOC(=O)c1cn(N)c2cc3c(cc2c1=O)OCO3,251 to 253 °C
23,COC(=O)C1=C(O)c2c(c3cc(C)ccc3n2C)S(=O)(=O)N1C,144 to 145 °C

row,Compound,melting point
1,C[Si](C)(C)c1cc(O)c([Si](C)(C)C)cc1O,162 °C
2,CC/C(=C\Cn1oc(=O)[nH]c1=O)c1cccc(OCc2nc(-c3ccc(C(F)(F)F)cc3)oc2C)c1,66 to 67 °C
3,CCCCOCC(CN1C(=O)NC(=O)C(CC)(c2ccccc2)C1=O)OC(N)=O (stereo not given),104 °C
4,CN(C)C1CCc2[nH]c3c(C(N)=O)cccc3c2C1 (stereo not given),252 to 254 °C
5,CCCCCOC(=O)C1CC(=O)NN1c1ncccc1Cl (stereo not given),66 to 68 °C
6,CCOC(=O)N1CCc2onc(Cl)c2C1,40 to 42 °C
7,CCOC(=O)Cc1cn2cc(Br)nc(NC)c2n1,104 °C
8,COC(=O)C1CNCCN1C(=O)/C=C/c1ccc(Sc2ccc3c(c2)OCCO3)c(C(F)(F)F)c1 (stereo not given),70 to 72 °C
9,CNC(=O)C(Cc1ccc([N+](=O)[O-])cc1)NC(=O)Nc1n[nH]c(=S)s1 (stereo not given),228 to 230 °C
10,CC(C)c1cccc(C(C)C)c1NC(=O)NCC1(c2ccc(C(F)(F)F)cc2)CCCC1,196 to 197 °C
11,Cc1cccc(C)c1NC(C)CN(C)C=O (stereo not given),69.5 to 72 °C
12,Cc1ccnc2c1nc(COc1ccc(CC3SC(=O)N(C(c4ccccc4)(c4ccccc4)c4ccccc4)C3=O)cc1)n2C (stereo not given),92 to 105 °C
13,C#CCP(=O)(O)CCCN,172 to 173 °C
14,NS(=O)(=O)CS(=O)(=O)c1ccc(SCCO)cc1,136 to 137 °C
15,CCOC(=O)NC(=O)CNS(=O)(=O)c1ccc(N2CCC(NC[C@H](O)c3ccc(O)c(NS(C)(=O)=O)c3)CC2)cc1,98 to 105 °C
16,Cc1cc(C)cc(C=CC#N)c1,67 to 68 °C
17,CCCCOc1c(CNC(=O)OC(C)(C)C)n(CC(C)(C)C)c(=O)c2ccc(C=O)cc12,149 to 150 °C
18,O=c1[nH]c2c(c(=O)n1CCCN1CCN(c3ccccc3OCC(F)(F)F)CC1)CCCC2,148 to 150 °C
19,O=C(CCCNC(=O)c1ccc(OC(F)(F)F)cc1)CCCNC(=O)c1ccc(OC(F)(F)F)cc1,151 to 152 °C
20,C[C@H](NC(=O)OC(C)(C)C)C(=O)CCl,64 to 66.5 °C
21,CNC1(C(=O)O)CCN(OC)CC1,> 250 °C
22,COCc1nc(N2CCCCC2)ncc1C(=O)OC,89 to 92 °C
23,O=Cc1cc(O)c(O)c(C=O)c1CCC(=O)O,160 to 162 °C

row,Compound,melting point
1,FC(F)(F)c1cc2cc3cc4cc(Sc5ccccc5)c(Sc5ccccc5)cc4cc3cc2cc1C(F)(F)F,> 260 °C
2,COc1ccc(S(=O)(=O)N2CCc3cccc(-c4ccc(C#N)cc4)c32)cc1,157 to 159 °C
3,COC(=O)COc1ccc(C(C)=O)c(OCCCBr)c1,67 to 70 °C
4,CCCCOc1c(NC(CC)CC)c(=O)c1=O,65 to 66 °C
5,O=C(O)CNC(=Nc1ccccc1)NC1CCCCC1,160 to 165 °C
6,COc1cccc(CC2SCCCS2)c1,54 to 56 °C
7,CCc1nc2c(N)nc3ccccc3c2n1CCCNOC,210 to 213 °C
8,OCc1cccc(-c2cnc3cnc(-c4ccc(O)cc4)nc3c2)c1,232 °C
9,C=CCOn1cnc2c(Cl)nc(N)nc21,137 to 139 °C
10,COc1cccc(Cc2nnc(NCCSCc3nc[nH]c3C)[nH]c2=O)c1,203 to 204 °C
11,Cc1ccc(C)c(OCCC(N)C(C)(C)C(=O)O)c1 (stereo not given),86.1 to 86.9 °C
12,CONc1cc(Cl)nc(S(C)(=O)=O)n1,135 °C
13,CCn1c(NC)nc(=O)c2ccccc21,262 to 264 °C
14,C1=C2CCC=C2CCCCCCCCC1,97 to 102 °C
15,Cn1nc(-c2ccc(F)cc2)c(-c2ccncc2)c1Br,174 °C
16,CC(C)CCc1c(-c2ccc(S(C)(=O)=O)c(F)c2)cnn(-c2ccc(F)c(F)c2)c1=O,119 to 121 °C
17,CCCCCCCCCCCCCCCC(=O)NC(Cc1cc(CP(=O)(O)O)cc(-c2ccccc2)c1)C(=O)O (stereo not given),130 to 140 °C
18,CCC(=O)Nc1cccc(C)c1C(=O)O,152 °C
19,CC(=O)OC1CC2=CCC3C4CCC(C(C)CCCC(C)C)C4(C)CCC3C2(C)C(OC(C)=O)C1OC(C)=O (stereo not given),109 to 110 °C
20,Oc1cccc2nscc12,184 to 186 °C
21,N#Cc1cnc2sc(CCC(=O)O)cc2c1Nc1ccc2[nH]ccc2c1,255 °C
22,CC1(C)CCc2cccc3c(-c4ccc(F)cc4)c(C=CC4CC(O)CC(=O)O4)n1c23 (stereo not given),166 °C
23,c1c(N2CCCC2)nc(N2CCNCC2)nc1N1CCCC1,152 to 160 °C

# Now from value to molecule:
row,melting point,Compound
1,106 °C,CN(Cc1ccc(=O)n(Cc2ccc(Cl)cc2)c1)c1ccccc1
2,115 to 117 °C,COC(=O)c1ccc(NC(=O)c2ccccc2-c2ccccc2)c(OC)c1
3,198 to 201 °C,O=C(c1ccc([N+](=O)[O-])cc1)N1Cc2ccccc2Cc2cc(Cl)ccc21
4,150 to 151 °C,COC(=O)Cc1csc(NC(=O)C(CC2CCCC2)c2ccc(Cl)c(Cl)c2)n1 (stereo not given)
5,83 to 85 °C,CC(C)(CNC(=O)Cc1ccccc1)NCC(O)c1cc(Cl)c(NC(=O)C(C)(C)C)c(Cl)c1 (stereo not given)
6,229 to 231 °C,O=C(O)C=Cc1cn(CC(C(=O)c2ccc(Cl)cc2Cl)c2ccccc2)cn1 (stereo not given)
7,170 to 172 °C,O=C(c1ccc(Cl)cc1)c1c(N2C(=O)c3ccccc3C2=O)sc(Br)c1CO
8,174 to 180 °C,CC(C)(C)c1csc(-c2cc3cc(Cc4nc(-c5ccccc5)c(CC(=O)O)s4)ccc3o2)n1
9,153 to 157 °C,Cc1cc(NC(=O)C(CSC(=O)CC(C)C)Cc2ccccc2)cc(C(=O)O)c1 (stereo not given)
10,235 to 237 °C,O=C(O)CCCCN1CCN(C2=Nc3ccccc3Cc3ccccc32)CC1
11,104 °C,CCOC(=O)Cc1ccc(NC(=O)c2cc(Cl)ccc2OC)cc1
12,171 to 175 °C,CC(C)[C@H](NS(=O)(=O)c1ccc2c(c1)Sc1ccccc1O2)C(=O)O
13,130 to 131 °C,O=C(O)CCc1cn(Cc2ccc(OCc3ccccc3)cc2)cc1-c1ccccc1
14,88 to 90 °C,CC(C(=O)c1ccncc1)c1ccc(C2=CCCCC2)cc1 (stereo not given)
15,254 to 255 °C,O=C(O)c1ccc(-c2nc(-c3ccccc3)ccc2Cl)cc1
16,232 to 235 °C,O=C(O)c1ccc(C(=O)/C=C/c2ccc(-c3nccs3)cc2)cc1

row,melting point,Compound
1,86 °C,C/C(=C\C(C)O)c1ccc(-c2ccccc2)c(Cl)c1 (stereo not given)
2,243 to 245 °C,Cc1nc(-n2ccc(C(=O)Nc3ccccc3)cc2=O)sc1C(=O)NCc1ccccc1
3,204 °C,COc1ccc2c(CC(=O)O)c(C(=O)c3cc(C)ccn3)[nH]c2c1
4,105 to 106 °C,Cc1oc(-c2ccccc2)nc1COc1cc(CCl)on1
5,123 to 124 °C,OC(CCCc1ccc(Cl)cc1)(Cc1ccc(Cl)cc1)c1ccc(OCc2ccc3ccccc3n2)cc1 (stereo not given)
6,138 to 140 °C,CCn1c(-c2c(Cl)cccc2Cl)nc(-c2ccnc(OC)c2)c1-c1ccc(Cl)cc1
7,214 to 220 °C,COc1ccc2c(C=O)c(OCc3ccccc3)ccc2c1Br
8,139 to 140 °C,CCOC(=O)c1ccc(C(NCC(=O)Nc2c(C(C)C)cccc2C(C)C)c2ccccc2)cc1 (stereo not given)
9,36 °C,COc1ccc(Cl)cc1C(=O)NCCc1ccc(CCCCCCC(=O)O)cc1
10,138 to 139 °C,O=C(CCCN1CCC(C(O)(c2ccccc2)c2ccccc2)CC1)c1ccc(N2CCCCC2)cc1
11,164 °C,Cc1conc1-c1nnc2c3ccccc3c(OCc3ccccn3)nn12
12,239 to 240 °C,O=C(O)c1cc(-c2ccccc2)cnc1Cl
13,161 to 162 °C,Nc1c(C(=O)CCC(=O)O)cccc1C(=O)c1ccccc1
14,108 to 110 °C,CC(C)COc1ccc2c(c1)N(C)C(=O)N(c1ccc(Cl)cc1)S2(=O)=O
15,147 to 150 °C,CCn1cc(C(=O)NCc2ccc(Cl)cc2)c(=O)c2cc(C#CCOC(=O)c3cccc(CN4CCOCC4)c3)sc21
